# Values of other authors, collected in paper PMC8050614 (Journal of bone and mineral research : the official journal …, 2019).
# Assays:
# [1] = test system: wild-type mice; conditions: injection at 50 nmol/kg
# [2] = test system: young wild-type mice; conditions: 8 weeks of treatment
Molecule,hypercalcemic response [1],osteoclast size and/or number [2],serum CTX1 [2]
hPTH(1–34)NH2,frank hypercalcemic response,,
NCCCC(O)(P(=O)(O)O)P(=O)(O)O [alendronate],,increase,decrease
